Experimental data: ChEMBL document CHEMBL3885861, “Open TG-GATES”

Organism: Rattus norvegicus
Assay: Open TG-GATES - Regimen: Daily Repeat
Type: toxicity, organism-based, Sprague-Dawley
Design: regimen Daily Repeat, gender Male, age 6 weeks
Conditions: in vivo, po, route gavage; for APTT / Bas / Eos / Fbg / Hb / Ht / Lym / MCH / MCHC / MCV / Mono / Neu / PT / Plat / RBC / Ret / WBC: tissue Blood; for KIDNEY_L / KIDNEY_R / KIDNEY_TOTAL: tissue Kidney; for LIVER: tissue Liver; for ALP / ALT / AST / BUN / CRE / Ca / DBIL / GLC / IP / K / LDH / Na / PL / RALB / TBIL / TC / TP / gamma-GTP / TG: tissue Plasma
[1] = 50 mg/kg, 72 h, dose level Middle, time 3 day
[2] = 50 mg/kg, […], dose level Middle, time 7 day
[3] = 50 mg/kg, […], dose level Middle, time 14 day
[4] = 50 mg/kg, […], dose level Middle, time 28 day
[5] = 150 mg/kg, 72 h, dose level High, time 3 day
[6] = 150 mg/kg, […], dose level High, time 7 day
[7] = 150 mg/kg, […], dose level High, time 14 day
[8] = 150 mg/kg, […], dose level High, time 28 day

Oc1ncnc2[nH]ncc12 [ALLOPURINOL]
APTT [1]: 16.2 s
Bas [1]: 0%
Eos [1]: 1.4%
Fbg [1]: 261.6 mg/dL
Hb [1]: 13.5 g/dL
Ht [1]: 40%
Lym [1]: 75%
MCH [1]: 21.9 pg
MCHC [1]: 33.7%
MCV [1]: 64.9 fL
Mono [1]: 9.2%
Neu [1]: 14.4%
PT [1]: 12.3 s
Plat [1]: 108.7 x10_4/uL
RBC [1]: 618 x10_4/ul
Ret [1]: 6.3%
WBC [1]: 139.1 x10_2/uL
KIDNEY_L [1]: 1.2 g
KIDNEY_R [1]: 1.2 g
KIDNEY_TOTAL [1]: 2.3 g
LIVER [1]: 11.5 g
ALP [1]: 918 IU/L
ALT [1]: 33.8 IU/L
AST [1]: 65.8 IU/L
BUN [1]: 20.6 mg/dL
CRE [1]: 0.5 mg/dL
Ca [1]: 11.1 mg/dL
DBIL [1]: 0.004 mg/dL
GLC [1]: 194.4 mg/dL
IP [1]: 7 mg/dL
K [1]: 4.7 meq/L
LDH [1]: 111.4 IU/L
Na [1]: 138.2 meq/L
PL [1]: 150 mg/dL
RALB [1]: 3.9 g/dL
TBIL [1]: 0.3 mg/dL
TC [1]: 79.4 mg/dL
TP [1]: 6.1 g/dL
gamma-GTP [1]: 2 IU/L
TERMINAL_BW [2]: 270.7 g
TERMINAL_BW [3]: 308.6 g
TERMINAL_BW [4]: 380.1 g
APTT [2]: 16.4 s
Bas [2]: 0%
Eos [2]: 0.4%
Fbg [2]: 246 mg/dL
Hb [2]: 14.2 g/dL
Ht [2]: 42.3%
Lym [2]: 86.4%
MCH [2]: 21.4 pg
MCHC [2]: 33.6%
MCV [2]: 63.9 fL
Mono [2]: 3.8%
Neu [2]: 9.4%
PT [2]: 11.8 s
Plat [2]: 120 x10_4/uL
RBC [2]: 661.2 x10_4/ul
Ret [2]: 5.3%
WBC [2]: 129.4 x10_2/uL
APTT [3]: 16.5 s
Bas [3]: 0%
Eos [3]: 0.6%
Fbg [3]: 232.2 mg/dL
Hb [3]: 14.9 g/dL
Ht [3]: 44.6%
Lym [3]: 84%
MCH [3]: 20.8 pg
MCHC [3]: 33.4%
MCV [3]: 62.2 fL
Mono [3]: 3.6%
Neu [3]: 12.2%
PT [3]: 11.9 s
Plat [3]: 111.6 x10_4/uL
RBC [3]: 716 x10_4/ul
Ret [3]: 4.2%
WBC [3]: 114 x10_2/uL
APTT [4]: 16.8 s
Bas [4]: 0%
Eos [4]: 1%
Fbg [4]: 225.6 mg/dL
Hb [4]: 15.2 g/dL
Ht [4]: 45%
Lym [4]: 78.8%
MCH [4]: 19.8 pg
MCHC [4]: 33.8%
MCV [4]: 58.5 fL
Mono [4]: 4.8%
Neu [4]: 15.6%
PT [4]: 12.1 s
Plat [4]: 101.2 x10_4/uL
RBC [4]: 770.4 x10_4/ul
Ret [4]: 2.9%
WBC [4]: 128.2 x10_2/uL
KIDNEY_L [2]: 1.2 g
KIDNEY_R [2]: 1.2 g
KIDNEY_TOTAL [2]: 2.4 g
KIDNEY_L [3]: 1.3 g
KIDNEY_R [3]: 1.3 g
KIDNEY_TOTAL [3]: 2.5 g
KIDNEY_L [4]: 1.5 g
KIDNEY_R [4]: 1.5 g
KIDNEY_TOTAL [4]: 3.1 g
LIVER [2]: 13.3 g
LIVER [3]: 14 g
LIVER [4]: 15.1 g
ALP [2]: 917.6 IU/L
ALT [2]: 33.4 IU/L
AST [2]: 64 IU/L
BUN [2]: 20.2 mg/dL
CRE [2]: 0.5 mg/dL
Ca [2]: 11.4 mg/dL
DBIL [2]: 0.034 mg/dL
GLC [2]: 207.2 mg/dL
IP [2]: 7.6 mg/dL
K [2]: 4.3 meq/L
LDH [2]: 87 IU/L
Na [2]: 140.2 meq/L
PL [2]: 158.2 mg/dL
RALB [2]: 3.9 g/dL
TBIL [2]: 0.3 mg/dL
TC [2]: 74.4 mg/dL
TG [2]: 144.4 mg/dL
TP [2]: 6.1 g/dL
gamma-GTP [2]: 1.2 IU/L
ALP [3]: 645.2 IU/L
ALT [3]: 29.8 IU/L
AST [3]: 63 IU/L
BUN [3]: 20.2 mg/dL
CRE [3]: 0.6 mg/dL
DBIL [3]: 0.002 mg/dL
GLC [3]: 200 mg/dL
IP [3]: 7.5 mg/dL
K [3]: 4.5 meq/L
LDH [3]: 71.2 IU/L
Na [3]: 139.6 meq/L
PL [3]: 147.4 mg/dL
RALB [3]: 3.8 g/dL
TBIL [3]: 0.3 mg/dL
TC [3]: 65.8 mg/dL
TG [3]: 131.2 mg/dL
TP [3]: 6.2 g/dL
gamma-GTP [3]: 1.6 IU/L
ALP [4]: 574.8 IU/L
ALT [4]: 29.2 IU/L
AST [4]: 60.6 IU/L
BUN [4]: 22 mg/dL
CRE [4]: 0.6 mg/dL
DBIL [4]: 0.014 mg/dL
GLC [4]: 187.4 mg/dL
IP [4]: 6.3 mg/dL
K [4]: 4.6 meq/L
LDH [4]: 63.6 IU/L
Na [4]: 139.4 meq/L
PL [4]: 145.8 mg/dL
RALB [4]: 4 g/dL
TBIL [4]: 0.3 mg/dL
TC [4]: 66 mg/dL
TG [4]: 147 mg/dL
TP [4]: 6.3 g/dL
gamma-GTP [4]: 1.6 IU/L
TERMINAL_BW [5]: 225 g
APTT [5]: 15.8 s
Bas [5]: 0%
Eos [5]: 0.8%
Fbg [5]: 368.2 mg/dL
Hb [5]: 14 g/dL
Ht [5]: 41.8%
Lym [5]: 70.2%
MCH [5]: 21.7 pg
MCHC [5]: 33.4%
MCV [5]: 65.1 fL
Mono [5]: 13%
Neu [5]: 16%
PT [5]: 12.5 s
Plat [5]: 115.9 x10_4/uL
RBC [5]: 642.4 x10_4/ul
Ret [5]: 5.2%
WBC [5]: 122.6 x10_2/uL
KIDNEY_L [5]: 1.6 g
KIDNEY_R [5]: 1.7 g
KIDNEY_TOTAL [5]: 3.2 g
LIVER [5]: 9.7 g
ALP [5]: 838.2 IU/L
ALT [5]: 27.6 IU/L
AST [5]: 61.2 IU/L
BUN [5]: 35.2 mg/dL
CRE [5]: 0.8 mg/dL
Ca [5]: 11.5 mg/dL
DBIL [5]: 0 mg/dL
GLC [5]: 192 mg/dL
IP [5]: 8 mg/dL
K [5]: 4.8 meq/L
LDH [5]: 165.4 IU/L
Na [5]: 139 meq/L
PL [5]: 142 mg/dL
RALB [5]: 3.8 g/dL
TBIL [5]: 0.3 mg/dL
TC [5]: 87 mg/dL
TG [5]: 47.8 mg/dL
TP [5]: 6.3 g/dL
gamma-GTP [5]: 4.2 IU/L
TERMINAL_BW [6]: 245.1 g
TERMINAL_BW [7]: 248.1 g
TERMINAL_BW [8]: 319.9 g
APTT [6]: 16.2 s
Bas [6]: 0%
Eos [6]: 1%
Fbg [6]: 300.7 mg/dL
Hb [6]: 14.2 g/dL
Ht [6]: 42.6%
Lym [6]: 77.7%
MCH [6]: 21 pg
MCHC [6]: 33.2%
MCV [6]: 63.2 fL
Mono [6]: 6.7%
Neu [6]: 15.3%
PT [6]: 12.9 s
Plat [6]: 122.5 x10_4/uL
RBC [6]: 676.7 x10_4/ul
Ret [6]: 2.8%
WBC [6]: 161 x10_2/uL
APTT [7]: 16.1 s
Bas [7]: 0%
Eos [7]: 1%
Fbg [7]: 414 mg/dL
Hb [7]: 14.4 g/dL
Ht [7]: 42.8%
Lym [7]: 52%
MCH [7]: 19.8 pg
MCHC [7]: 33.5%
MCV [7]: 59 fL
Mono [7]: 7%
Neu [7]: 40.4%
PT [7]: 13.3 s
RBC [7]: 725 x10_4/ul
Ret [7]: 2.1%
WBC [7]: 209.4 x10_2/uL
APTT [8]: 15.3 s
Bas [8]: 0%
Eos [8]: 0.5%
Fbg [8]: 319.5 mg/dL
Hb [8]: 13.7 g/dL
Ht [8]: 40.8%
Lym [8]: 74.8%
MCH [8]: 19.2 pg
MCHC [8]: 33.6%
MCV [8]: 57.1 fL
Mono [8]: 3.2%
Neu [8]: 21%
PT [8]: 13 s
Plat [8]: 117.9 x10_4/uL
RBC [8]: 713.5 x10_4/ul
Ret [8]: 3.9%
WBC [8]: 344.2 x10_2/uL
KIDNEY_L [6]: 1.8 g
KIDNEY_R [6]: 1.9 g
KIDNEY_TOTAL [6]: 3.7 g
KIDNEY_L [7]: 2.8 g
KIDNEY_R [7]: 2.9 g
KIDNEY_TOTAL [7]: 5.7 g
KIDNEY_L [8]: 3 g
KIDNEY_R [8]: 2.7 g
KIDNEY_TOTAL [8]: 5.6 g
LIVER [8]: 12.1 g
ALP [6]: 697 IU/L
ALT [6]: 24.7 IU/L
AST [6]: 60.7 IU/L
BUN [6]: 38.7 mg/dL
CRE [6]: 0.8 mg/dL
Ca [6]: 11 mg/dL
DBIL [6]: 0.0367 mg/dL
GLC [6]: 190 mg/dL
IP [6]: 5.6 mg/dL
K [6]: 4.6 meq/L
LDH [6]: 96.3 IU/L
Na [6]: 141.3 meq/L
PL [6]: 139.7 mg/dL
RALB [6]: 3.8 g/dL
TBIL [6]: 0.2 mg/dL
TC [6]: 80.7 mg/dL
TG [6]: 64.3 mg/dL
TP [6]: 6.2 g/dL
gamma-GTP [6]: 3 IU/L
ALP [7]: 608.6 IU/L
ALT [7]: 23.4 IU/L
AST [7]: 62.8 IU/L
BUN [7]: 66.2 mg/dL
CRE [7]: 1 mg/dL
DBIL [7]: 0 mg/dL
GLC [7]: 177 mg/dL
IP [7]: 5.1 mg/dL
K [7]: 4.5 meq/L
LDH [7]: 150.8 IU/L
Na [7]: 140.2 meq/L
PL [7]: 154.8 mg/dL
RALB [7]: 3.3 g/dL
TBIL [7]: 0.3 mg/dL
TC [7]: 91.2 mg/dL
TP [7]: 6.1 g/dL
gamma-GTP [7]: 6 IU/L
ALP [8]: 482 IU/L
ALT [8]: 29.8 IU/L
AST [8]: 68.8 IU/L
BUN [8]: 61.2 mg/dL
CRE [8]: 1.1 mg/dL
Ca [8]: 11.3 mg/dL
DBIL [8]: 0.015 mg/dL
GLC [8]: 163.5 mg/dL
IP [8]: 5.2 mg/dL
K [8]: 4.8 meq/L
LDH [8]: 150.8 IU/L
Na [8]: 141.5 meq/L
PL [8]: 162.5 mg/dL
RALB [8]: 3.7 g/dL
TBIL [8]: 0.2 mg/dL
TC [8]: 98.2 mg/dL
TG [8]: 79 mg/dL
TP [8]: 6.3 g/dL
gamma-GTP [8]: 3.8 IU/L
